Values quoted from earlier work as cited in publication PMC7751758, “Repurposing Sigma-1 Receptor Ligands for COVID-19 Therapy?” (Frontiers in Pharmacology, 2020).

Test system: SARS-CoV
Settings: mouse, in vivo

Row | Structure (SMILES) | clinical disease | virus replication in lungs
1 | CCN(CC)CCCC(C)Nc1ccnc2cc(Cl)ccc12 (stereo not shown) [Chloroquine] | did protect mice from clinical disease | did not inhibit virus replication in lungs
2 | CN(C)CCCN1c2ccccc2Sc2ccc(Cl)cc21 [Chlorpromazine] | did protect mice from clinical disease | did not inhibit virus replication in lungs
